Ends that are not written are not given here.
Tests used:
LSD2 (residues 51-822) = biological target: T1, LSD2 (residues 51-822) (Homo sapiens, UniProt Q8NB78); test: ITC binding of wild-type and mutant NPAC peptides (residues 214-225) with LSD2; settings: 15 °C; 3 mM NPAC peptide injected into 0.2 mM LSD2
T1 construct: Human LSD2 (residues 51-822) was subcloned into a pFastBacl derivative; His6 (cleaved yes); made in house; host or cells: Sf9 insect cells (baculovirus)
T1 sequence (Q8NB78 51-822): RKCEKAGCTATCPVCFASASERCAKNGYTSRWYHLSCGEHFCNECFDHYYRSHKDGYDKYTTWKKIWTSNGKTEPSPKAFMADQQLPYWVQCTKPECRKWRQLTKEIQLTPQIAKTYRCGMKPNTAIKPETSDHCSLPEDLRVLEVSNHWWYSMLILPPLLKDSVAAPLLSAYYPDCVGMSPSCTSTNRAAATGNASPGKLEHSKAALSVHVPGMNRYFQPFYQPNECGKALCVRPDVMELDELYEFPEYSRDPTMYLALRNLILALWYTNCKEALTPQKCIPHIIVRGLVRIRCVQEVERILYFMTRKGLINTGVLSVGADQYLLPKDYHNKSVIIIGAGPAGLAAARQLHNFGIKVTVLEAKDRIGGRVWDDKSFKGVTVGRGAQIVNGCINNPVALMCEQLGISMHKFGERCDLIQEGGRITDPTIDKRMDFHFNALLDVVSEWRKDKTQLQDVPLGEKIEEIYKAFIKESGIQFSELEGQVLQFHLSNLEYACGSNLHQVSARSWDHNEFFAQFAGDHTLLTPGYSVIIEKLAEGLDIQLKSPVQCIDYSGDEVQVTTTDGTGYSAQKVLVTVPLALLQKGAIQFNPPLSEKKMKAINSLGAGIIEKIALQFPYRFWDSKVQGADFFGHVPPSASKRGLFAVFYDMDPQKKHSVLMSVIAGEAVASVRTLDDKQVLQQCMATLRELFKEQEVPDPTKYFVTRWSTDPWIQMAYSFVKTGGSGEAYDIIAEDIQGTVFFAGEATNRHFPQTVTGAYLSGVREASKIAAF
Description: (§1) All proteins and peptides were prepared in 10 mM HEPES, pH 8.0, and 0.1 M NaCl. The data were fitted by software Origin 7.0.

[1] = biological target: T2, LSD2 and NPAC.214-225.F217A (Homo sapiens, UniProt Q8NB78); test: ITC binding of H3K4M peptide with LSD2 in complex with F217A NPAC peptide; settings: FIG. 6H
T2 construct: containing 0.029 mM LSD2 (residues 51-822) or LSD2-NPAC complex; His6 (cleaved yes); made in house; host or cells: LSD2: Sf9 insect cells; NPAC peptide: chemical synthesis
Description: as §1

His-LSD2 = biological target: T3, His-LSD2 (Homo sapiens, UniProt Q8NB78); test: Nucleosome demethylation assay (NPAC cofactor activity for LSD2, immunoblot); assay type: biochemical; settings: threshold dosage of His-LSD2; nucleosomes purified from HeLa
T3 construct: typically 0.5 μg full-length His-LSD2; made in house; host or cells: Sf9 insect cells
T3 sequence (Q8NB78 1-822): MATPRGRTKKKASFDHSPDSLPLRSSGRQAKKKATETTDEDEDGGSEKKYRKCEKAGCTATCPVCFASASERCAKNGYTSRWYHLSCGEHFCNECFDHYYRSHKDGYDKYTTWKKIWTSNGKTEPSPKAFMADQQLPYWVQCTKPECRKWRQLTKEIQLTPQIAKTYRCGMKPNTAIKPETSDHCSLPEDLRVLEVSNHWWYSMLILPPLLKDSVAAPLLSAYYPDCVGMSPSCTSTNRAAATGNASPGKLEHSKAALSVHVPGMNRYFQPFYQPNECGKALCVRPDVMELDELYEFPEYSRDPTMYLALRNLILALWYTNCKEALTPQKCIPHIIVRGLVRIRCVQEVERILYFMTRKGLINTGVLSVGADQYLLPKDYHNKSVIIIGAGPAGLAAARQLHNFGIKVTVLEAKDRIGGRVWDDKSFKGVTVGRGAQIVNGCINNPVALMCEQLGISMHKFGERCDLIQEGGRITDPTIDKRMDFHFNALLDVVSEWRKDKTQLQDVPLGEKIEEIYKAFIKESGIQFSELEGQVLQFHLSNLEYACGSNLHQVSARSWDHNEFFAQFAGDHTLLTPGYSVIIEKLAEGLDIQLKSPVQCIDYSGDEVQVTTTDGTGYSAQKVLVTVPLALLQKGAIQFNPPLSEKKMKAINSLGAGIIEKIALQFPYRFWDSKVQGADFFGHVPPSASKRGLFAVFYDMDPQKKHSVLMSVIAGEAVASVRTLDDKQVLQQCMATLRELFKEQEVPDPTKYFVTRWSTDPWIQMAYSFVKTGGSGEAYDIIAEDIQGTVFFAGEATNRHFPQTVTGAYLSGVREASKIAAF
Description: For nucleosome demethylation assays, typically 0.5 μg full-length His-LSD2, 1 μg NPAC protein or peptides, and 2 μg nucleosomes purified from HeLa were used, and demethylation efficiency was analyzed by SDS-PAGE electrophoresis and immunoblot using methylation specific anti-histone H3 antibodies as previously described (Shi et al. 2004).

LSD2 = biological target: T4, LSD2 (Homo sapiens, UniProt Q8NB78); test: H3K4me2 peptide demethylation assay (MALDI-TOF); assay type: biochemical; settings: H3K4me2 peptide residues 1-21
T4 construct: 0.15 μM or 1.2 μM purified LSD2 (residues 51-822); His6 (cleaved yes); made in house; host or cells: Sf9 insect cells (baculovirus)
T4 sequence (Q8NB78 51-822): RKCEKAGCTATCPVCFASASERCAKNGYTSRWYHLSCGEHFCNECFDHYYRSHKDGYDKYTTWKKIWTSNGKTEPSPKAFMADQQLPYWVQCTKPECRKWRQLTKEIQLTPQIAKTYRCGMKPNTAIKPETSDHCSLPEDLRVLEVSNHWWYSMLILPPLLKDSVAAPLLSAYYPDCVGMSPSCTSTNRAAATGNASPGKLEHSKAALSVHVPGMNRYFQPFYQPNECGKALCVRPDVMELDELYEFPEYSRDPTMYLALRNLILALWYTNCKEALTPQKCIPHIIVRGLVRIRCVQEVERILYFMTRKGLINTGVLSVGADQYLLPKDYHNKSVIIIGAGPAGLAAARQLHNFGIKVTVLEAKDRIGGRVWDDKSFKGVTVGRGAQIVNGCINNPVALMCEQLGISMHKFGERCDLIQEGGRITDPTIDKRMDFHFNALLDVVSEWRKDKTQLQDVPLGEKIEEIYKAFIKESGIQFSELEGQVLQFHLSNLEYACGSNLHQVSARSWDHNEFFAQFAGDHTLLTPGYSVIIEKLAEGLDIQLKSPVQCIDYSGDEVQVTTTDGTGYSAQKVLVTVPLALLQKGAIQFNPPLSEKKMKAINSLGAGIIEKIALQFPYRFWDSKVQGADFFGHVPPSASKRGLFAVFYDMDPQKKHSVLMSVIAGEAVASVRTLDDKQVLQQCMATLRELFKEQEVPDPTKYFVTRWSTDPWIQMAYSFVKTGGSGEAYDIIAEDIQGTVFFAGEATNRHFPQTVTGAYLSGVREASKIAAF
Description: FIGS. 12A-12F depict analysis of LSD2 demethylation activity and mutational analysis. […] Demethylation products were analyzed by MALDI-TOF mass spectrometry. 0.15 μM LSD2 can efficiently demethylate the longer H3K4me2 peptide (1-21), but has no detectable activity on the shorter histone peptide (1-15), demethylation of which requires high concentration (1.2 μM) of LSD2. […] It indicates the importance of histone residue 16-21 to LSD2 enzymatic activity and NPAC cofactor activity, supporting our model that NPAC assists enzyme-substrate interactions by creating a new binding site for H3 L20 in the LSD2-NPAC complex. FIG. 12C depicts LSD2 demethylation and NPAC cofactor activity on longer H3K4me2 peptide (1-44). 2 μg H3K4me2 peptide (1-44) were incubated with 0.8 μg GST-LSD2 (1-822) and 2 μg wild-type or F217A full-length GST-NPAC proteins in 100 μl demethylation buffer (50 mM Tris-HCl pH 8.1, 1 mM NAD^+, 0.1 Unit formaldehyde dehydrogenase) at 30° C. for 2 hours. LSD2 alone can efficiently demethylate di-methyl H3K4 of the long peptides, converting large majority of the substrate to H3K4me1. Wild-type NPAC protein can efficiently stimulate LSD2 demethylation, producing unmethylated H3K4. F217A mutation impairs NPAC cofactor activity as expected, showing little stimulatory effect if any. To compare demethylation efficiency, 1.2 μg bio-H3K4me2 peptide (H3 residue 1-21, equal molar ratio to 2 ug H3K4me2 1-44 peptide in above assays) was demethylated by LSD2 under identical conditions (bottom panel). […] The cofactor activity of wild-type NPAC was readily detected under the same conditions. […] Importantly, the demethylation of nucleosomal H3K4me2 was much more efficient in the presence of wild-type NPAC under same conditions (comparing lane 3 verse 4, and 8 verse 9). It is noted that no obvious cofactor effect of F217A peptide or linker regions was detected in nucleosome and peptide demethylation assays (FIG. 6E and data not shown). FIG. 12F depicts Coomassie staining of NPAC proteins used in histone demethylase assays. FIG. 12F discloses “His6” as SEQ ID NO: 75.
Histone peptides are purchased from Millipore, or custom synthesized. The purity of all peptides are >95% as determined by HPLC and mass spectrometry. In vitro histone demethylase activity assays were performed as described (Shi et al., 2004). Briefly, purified LSD2 and NPAC derived peptides or proteins were incubated with 50 μM H3K4me2 peptides (residues 1-21) in 50 mM Tris-HCl, pH 8.5, 50 mM KCl, 5 mM MgCl2, 5% glycerol at 37° C. for 30 min. The products were desalted through a C18 Ziptip (Millipore) and analyzed on a MALDI-TOF micro MX mass spectrometer (ABI 4700, Applied Biosystems). The laser intensity was kept constant for all of the samples. All MS data were processed using Data Explorer 4.5 (Applied Biosystems). […]

NPAC214-225.WT = biological target: T5, NPAC214-225.WT (Homo sapiens, UniProt Q49A26); test: ITC binding between H3K4M peptide and wild-type NPAC peptide alone; settings: FIG. 6H
T5 construct: wild-type or mutant NPAC peptides (residues 214-225); made in house; host or cells: chemical synthesis

[2] = tested on: nucleosomes purified from HeLa; test: Nucleosome pulldown by GST-NPAC proteins; assay type: binding
Description: Nucleosomes were purified from HeLa as previously described (Umlauf et al., 2004). To examine nucleosome binding selectivity of NPAC, 5 μg GST fusion protein bound to glutathione agarose were incubated with 20 μg nucleosomes overnight at 4° C. in nucleosome binding buffer (50 mM NaPO4 pH 7.4, 200 mM NaCl, 0.5% NP-40, 5% glycerol, 10 μM ZnSO4, 1 mM MgCl2, 1 mM DTT, 0.1 mM PMSF). After washing 4 times with the same buffer at 4° C., the beads were boiled in 1×SDS sample loading buffer and elute was resolved by 15% SDS-PAGE for immunoblot analysis or coomassie staining.
For free-DNA competition assays, human genomic DNA was purified from HeLa cells and fragmented to an average size around 300 bp by sonication. Equal amounts of GST-NPAC.d5 bound to glutathione beads were pre-incubated with 0, 5, 10, 25 μg genomic DNA fragments in nucleosome binding buffer for 30 minutes at room temperature, and equal amounts of nucleosomes were added and incubated overnight at 4° C. After extensive washing, GST-NPAC.d5 and bound nucleosomes were eluted by boiling in 1×SDS sample loading buffer, resolved by SDS-PAGE and stained with coomassie blue.

H3Kc36me3 nucleosomes = test: MLA nucleosome pulldown by GST-NPAC.d1; assay type: binding; settings: H3Kc36me3, H3Kc79me3, H3Kc9me3, H3Kc27me3, unmodified
Description: MLA nucleosomes were reconstituted using 147 bp double-strand alpha satellite DNA and recombinant histones expressed and purified from E. coli. Tri-methylation was chemically introduced to H3K9C, H3K27C, H3K36C and H3K79C histones respectively as described (Simon et al., 2007). 2 μg MLA nucleosome was used for GST-pulldown as described above.

double strand DNA = test: DNA binding assay (GST-pulldown)
Description: 5-10 μg GST and GST-tagged NPAC truncation proteins were incubated with 1 μg linearized plasmid DNA overnight at 4° C. in 50 mM Tris pH 7.4, 200 mM NaCl, 0.2% NP-40, 1 mM MgCl2, 1 mM EDTA, 1 mM DTT, 0.02 mM ZnSO4. After extensive washing with the same buffer, bound DNA was eluted by incubating with 100 μl 10 mM Tris pH 8.0, 1% SDS for 15 minutes at 65° C. Pulldown DNA was purified using Qiagen PCR purification kit, resolved by agarose gel electrophoresis and stained with Ethidium Bromide.

For DPHAHHFLLSQT [NPAC.214-225.M6], the Binding ratio (LSD2 (residues 51-822)) was 1.10 ± 0.01, the Kd (LSD2 (residues 51-822)) was 930 ± 70 nM and the “Δ H” value (LSD2 (residues 51-822)) was -8.182 ± 0.097 kcal/mol. For the same molecule, the “Δ S” value (LSD2 (residues 51-822)) was −0.783 cal/mol/deg, the “Ability of NPAC peptide to stabilize the LSD2-H3K4M peptide interaction” value [1] was “significantly diminishes the ability of NPAC to stabilize the interaction between LSD2 and the H3K4M peptide” and the “Cofactor activity: stimulation of LSD2 demethylation of nucleosomal H3K4me2” value (His-LSD2) was “abolishes cofactor activity”. The “Cofactor activity: stimulation of LSD2 demethylation of H3K4me2 peptide” value (LSD2) was “but not the F217A mutant, can stimulate LSD2-mediated demethylation of H3K4me2 peptides”.

DPHFHHFLLSQT [NPAC.214-225.WT] was tested, and the Binding ratio (LSD2 (residues 51-822)) was 1.06 ± 0.01, the Kd (LSD2 (residues 51-822)) was 920 ± 80 nM and the “Δ H” value (LSD2 (residues 51-822)) was -8.482 ± 0.121 kcal/mol. The “Δ S” value (LSD2 (residues 51-822)) was −1.82 cal/mol/deg, the “Affinity of NPAC peptide to H3K4M peptide” value (NPAC214-225.WT) was “no appreciable affinity to H3K4M peptide” and the “Cofactor activity: stimulation of LSD2 demethylation of nucleosomal H3K4me2” value (His-LSD2) was “sufficient to enhance LSD2 activity in nucleosome demethylation assays”. The “Cofactor activity: stimulation of LSD2 demethylation of H3K4me2 peptide” value (LSD2) was “can stimulate LSD2-mediated demethylation of H3K4me2 peptides”.

B1: NPAC.d1: Example 2 GST-NPAC truncation, residues 1-150 (protein, UniProt Q49A26 1-150, looked up, fragment)
chain: MAAVSLRLGDLVWGKLGRYPPWPGKIVNPPKDLKKPRGKKCFFVKFFGTEDHAWIKVEQLKPYHAHKEEMIKINKGKRFQQAVDAVEEFLRRAKGKDQTSSHNSSDDKNRRNSSEERSRPNSGDEKRKLSLSEGKVKKNMGEGKKRVSSG
modifications: GST tag
In the case of B1, the “Nucleosome binding (GST-pulldown)” value [2] is reported as “strong binding to nucleosomes”, the “Binding to modification-specific MLA nucleosomes” value (H3Kc36me3 nucleosomes) is reported as “highest binding affinity for H3Kc36me3 nucleosomes over H3Kc79me3” and the “DNA binding (GST-pulldown)” value (double strand DNA) is reported as “can bind to double strand DNA”.

Source: patent publication US9745384B2, “Peptides useful for modulating histone demethylase function” (The Brigham and Women's Hospital, Inc., priority 2012, dated 2017)
